Values quoted from earlier work in patent US20210283219A1, “INHIBITION OF ALTERNATIVE COMPLEMENT PATHWAY FOR TREATMENT OF RETINAL ISCHEMIC INJURY AND GLAUCOMA” (Massachusetts Eye and Ear Infirmary, priority 2017, published 2021).

Target: complement factor B (Homo sapiens, UniProt P00751)
Sequence (P00751 26-764, species assumed): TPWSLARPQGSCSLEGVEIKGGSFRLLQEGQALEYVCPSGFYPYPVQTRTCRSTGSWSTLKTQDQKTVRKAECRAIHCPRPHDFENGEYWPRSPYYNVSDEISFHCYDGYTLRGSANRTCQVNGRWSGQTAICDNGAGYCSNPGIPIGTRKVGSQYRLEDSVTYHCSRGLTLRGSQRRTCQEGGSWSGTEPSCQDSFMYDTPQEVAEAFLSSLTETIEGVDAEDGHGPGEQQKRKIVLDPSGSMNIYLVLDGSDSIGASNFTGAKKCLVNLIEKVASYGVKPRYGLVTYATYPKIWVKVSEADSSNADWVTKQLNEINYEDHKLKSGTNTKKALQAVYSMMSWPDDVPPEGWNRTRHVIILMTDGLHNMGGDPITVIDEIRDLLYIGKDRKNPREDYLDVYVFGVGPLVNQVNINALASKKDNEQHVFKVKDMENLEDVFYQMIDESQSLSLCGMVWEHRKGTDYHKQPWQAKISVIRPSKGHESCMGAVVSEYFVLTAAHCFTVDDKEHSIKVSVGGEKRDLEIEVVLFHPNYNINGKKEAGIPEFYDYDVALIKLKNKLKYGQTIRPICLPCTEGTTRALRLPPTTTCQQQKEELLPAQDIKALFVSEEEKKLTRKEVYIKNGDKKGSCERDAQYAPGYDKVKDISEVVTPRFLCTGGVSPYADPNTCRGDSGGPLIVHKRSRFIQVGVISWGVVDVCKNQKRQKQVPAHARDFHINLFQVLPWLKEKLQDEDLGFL

inhibition of complement factor B: potently inhibits
Substance: (2S)-2-[[(2S)-2 [[(2S)-2-[[(2S)-[[(2S)-2-[[(2S)-2-acetamido-5-(diaminomethylideneamino)pentanoyl]amino]-4-methylpentanoyl]amino]-4,4-dimethylpentanoyl]amino]-4-methylpentanoyl]amino]propanoyl]amino]-5-(diaminomethylideneamino)pentanoic acid [Compound 51]
